# Measurements: patent US20240309090A1, “MODULATION OF ANDROGEN SIGNALING TO INNATE IMMUNE KILLING OF PROSTATE CANCER” (Brown University, priority 2023, published 2024)
# What was measured:
# [1] = system: PC tumors (PC3, 22Rv1 xenograft); assay: NK cell infiltration in subcutaneous PC tumors of treated mice; assay type: in vivo, NCr Nude mice; settings: oral, Daro 50 mg/kg/bid, Enza 30 mg/kg/bid, 4 weeks
# Protocol: We conducted cell viability assays to investigate the effect of Enza and Daro on PC cells (LNCap, 22Rv1 [ARv7 mutation], DU145, PC3 [AR-]) and NK-92 cells. We performed co-culture experiments with PC and NK cells in a 1:1 ratio and analyzed immune cell-mediated tumor cell killing (ImageXpress Confocal HT). Cytokine profiling (Luminex 200) of culture supernatants was performed following treatment with ARi−/+ and anti-IFN-γ antibodies. In vivo studies were performed in NCr Nude mice harboring subcutaneous PC tumors treated orally with Daro (50 mg/kg/bid) and Enza (30 mg/kg/bid) for 4 weeks.
# In vivo studies were performed in NCr Nude mice harboring subcutaneous PC tumors treated orally with Daro (50 mg/kg/bid) and Enza (30 mg/kg/bid) for 4 weeks.
# 22Rv1 cell line = assay: Flow cytometry of HLA-E / PD-L1 surface expression on 22Rv1; assay type: cell-based; settings: for HLA-E surface expression, mean fluorescence intensity (MFI): 22Rv1, enza 15 μM, daro 20 μM, 48 h; for surface levels of HLA-E / surface levels of PD-L1: Example 2, 22Rv1
# Protocol: The effect of ARi on the NKG2A ligand, HLA-E, was investigated by flow cytometry on PCa cells treated with enza and daro.
# (§1) PCa cells were plated at a density of 3×10^5 cells per well of a 6-well plate and adhered overnight. […] After treatment, cells were trypsinized, stained, and incubated (Cell Staining Buffer SouthernBiotech #0225-01S) with the corresponding antibody for 45-60 min at 4° C. Viability dye was added with each run. NK-92 cells and patient-derived cells were stained similarly. Markers used for experiments included: Thermofisher HLA-E Monoclonal Antibody (3D12HLA-E), Alexa Fluor™ 488, eBioscience™, CD274 (PD-L1, B7-H1) Monoclonal Antibody (MIH1), eFluor™ 450, eBioscience™, Cell Signaling PD-1 (D4W2J) XPR Rabbit mAb, SYTOX™ Orange Dead Cell Stain, for flow cytometry, BioLegend APC anti-human CD159a (NKG2A) Antibody #375108, BioLegend APC anti-human CD69 Antibody #310909, BioLegend Alexa Fluor® 647 anti-human CD137 (4-1BB) [4B4-1] #309823. For staining of the patient-derived PBMCs and subsequent NK cell characterization, the following antibodies were used: BioLegend Anti-Perforin Mouse Monoclonal Antibody (PerCP Cy5.50, clone: dG9) #308113, BioLegend Anti-Granzyme B Mouse Monoclonal Antibody (FITC, clone: GB11) #515403, BioLegend Anti-CD56 Mouse Monoclonal Antibody (Alexa Fluor® 700, clone: 5.1H1) #362521, and BioLegend (PE anti-human CD45 Antibody) #304008.
# The effect of androgen pathway inhibitors in the expression of HLA-E, a negative and key negative modulator of NK cell function, was also performed using Flow Cytometry. PD-L1 expression levels were also measured. In advance, The NK cell immune checkpoint inhibitor monalizumab (targeting NKG2A and its ligand, HLA-E) was also combined with ARi.
# NK cells = assay: Flow cytometry of NKG2A and PD-1 surface expression on NK cells; assay type: cell-based
# Protocol: as §1
# Methods: PCa cell lines (LNCaP, 22Rv1 [ARv7 mutation], DU145[AR-], PC3 [AR-]) were cocultured with NK-92 cells and treated with ARi (enzalutamide [enza] and darolutamide [daro]) or in combination with anti-NKG2A antibody monalizumab. Immune cell-mediated tumor cell killing assays and multiplexed cytokine profiling were performed. NKc expression of NKG2A and PCa cells expression of HLA-E were investigated by flow cytometry. The AR-negative cell lines (PC3 and DU145) were stably transduced with a functional AR pathway to evaluate the modulation of HLA-E by AR. The activation status of peripheral blood NKc isolated from patients with PCa before and post-initiation of androgen deprivation therapy (ADT) was investigated by flow cytometry.
# NK-92 cells [2] = assay: Flow cytometry of NK-92 activation markers CD69 and CD137; assay type: cell-based; settings: NK-92 monoculture, 48 h
# Protocol: The surface expression of the NK cell activation markers CD69 and CD137 were also evaluated following the treatment of NK cell monocultures with ARi (FIG. 13D-E).
# as §1
# LNCaP = assay: Co-culture of LNCaP with NK-92 cells, immune-mediated tumor cell killing; assay type: cell-based
# Protocol: They were co-treated with enzalutamide ([…]) or darolutamide (20 μM) for 48 h. Doses of AR inhibitors (ARi) used in the co-culture experiments were based on previous IC50 experiments. […] The immune-mediated effect of NK-92 on the PCa cell lines in the presence of enzalutamide (immune enhancement death) was normalized to baseline immune and tumor cell killing in each condition [(tumor cells+immune cells)-tumor baseline death=baseline immune death]. […] Cytokine analysis was performed to investigate the activation phenotype of NK cells when treated with ARi.
# Prostate cancer cell lines were dyed with the blue CMAC live-cell dye (Thermo Fisher Scientific #C2110, per manufacturer protocol). Blue-fluorescent cancer cells were plated at a density of 10,000 cells per well of a 48-well plate. NK-92 cells were dyed with green CMFDA (Cayman Chemical Company #19583, per manufacturer protocol). Green-fluorescent NK-92 cells were added to the blue-fluorescent cancer cells at a 1:1 ratio. Enzalutamide (10 μM), darolutamide (20 μM), and 1 μM ethidium homodimer (EthD-1) were added at the same time as the NK cells. After 24 hours of co-culture, images of live cancer cells, live NK cells, and dead cells were taken using a fluorescent microscope. The co-culture experiments were run with internal control conditions and as a single treatment. Normalization was performed after analysis to take baseline death conditions into each experiment run. […] Cell adhered over 24 h, and when patient-derived NK cells were added, a control well was trypsinized, and cells resuspended and counted to adjust a 1:1 ratio before treatment addition. […]
# Live cancer cells, NK cells, and dead cells were quantified using FIJI (Fiji Is Just ImageJ) software for images derived from fluorescent co-culture images. Images from the ImageXpress system were quantified using MetaXpress cytoplasmic/nuclear staining software. The percent of dead tumor cells in each well was quantified, and this percentage was normalized by subtracting baseline death from cancer cell-only wells, NK cell-only wells, or both.
# NK-92 cells [3] = assay: NK cell viability assay (CellTiterGlo); assay type: cell-based; settings: NK cells alone, doses used in co-culture
# Protocol: For NK cell viability assays, 5×10^3 cells were plated in a 96-well plate, and viability (72h) was measured using a CellTiterGlo assay.
SMILES,NK cell infiltration in the tumor microenvironment [1],"HLA-E surface expression, mean fluorescence intensity (MFI) (22Rv1 cell line)",surface levels of HLA-E (22Rv1 cell line),surface levels of PD-L1 (22Rv1 cell line),surface expression of NKG2A (NK cells),expression of CD69 (NK-92 cells [2]),expression of CD137 (NK-92 cells [2]),"cell death rate (NK cell-mediated tumor killing) (LNCaP; LNCaP + NK-92 1:1, 24 hours)","NK cell killing of PCa cells (immune enhancement) (LNCaP; LNCaP + NK-92 1:1, enzalutamide 10 μM, FIG. 15A)",NK cell viability (NK-92 cells [3])
CC(O)c1cc(C(=O)N[C@@H](C)Cn2ccc(-c3ccc(C#N)c(Cl)c3)n2)n[nH]1 (some centres unmarked) [darolutamide],increased,30.5±2.69×10^3,did not change significantly,did not change significantly,modulate,88.63%,64.87%,–,–,–
CNC(=O)c1ccc(N2C(=S)N(c3ccc(C#N)c(C(F)(F)F)c3)C(=O)C2(C)C)cc1F [enzalutamide],increased,41.14+7.6×10^3,did not change significantly,did not change significantly,modulate,87.4%,61.54%,48.3%,35.32%,noncytotoxic
